The source of these data is patent US4547507A, “Benzothiopyranopyridinones” (Roussel Uclaf, priority 1982, dated 1985).

Structures can show the parent of a compound that is named as a salt. Bounds are passed on as bounds.

In assay [1] the target is rat striatal dopamine receptor (Rattus norvegicus, UniProt P61169). Description: Test A: [3H]Spiroperidol displacement from rat striatal dopamine receptor binding sites. As to conditions: rat striatal membranes, [3H]spiroperidol 0.19 nM, 37° C., 10 minutes, pH 7.6; read-out: Test A receptor DA IC50. How it is done: Test A--[^3 H Spiroperidol displacement from rat striatal dopamine receptor binding sites
Sequence of rat striatal dopamine receptor (P61169 whole entry): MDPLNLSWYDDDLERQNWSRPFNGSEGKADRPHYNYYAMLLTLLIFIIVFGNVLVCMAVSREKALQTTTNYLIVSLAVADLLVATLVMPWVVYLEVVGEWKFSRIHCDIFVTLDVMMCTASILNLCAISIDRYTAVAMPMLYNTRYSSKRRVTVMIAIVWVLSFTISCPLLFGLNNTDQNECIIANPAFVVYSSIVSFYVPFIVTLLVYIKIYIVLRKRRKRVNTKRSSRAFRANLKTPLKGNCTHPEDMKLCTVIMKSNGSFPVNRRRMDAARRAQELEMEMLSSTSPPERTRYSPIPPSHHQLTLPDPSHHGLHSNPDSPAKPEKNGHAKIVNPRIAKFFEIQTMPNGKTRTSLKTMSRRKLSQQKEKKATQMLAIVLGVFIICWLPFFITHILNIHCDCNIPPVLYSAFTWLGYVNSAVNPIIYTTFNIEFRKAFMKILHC
(a) Radioligand--[phenyl-4-(n)-^3 H]Spiroperido (Amersham International, TRK 570, 21 Ci/mmol was used as a 1 μCi/1 μl solution in ethanol and this solution was diluted to 250 μCi in 1 ml of ethanol to produce a stock solution. This stock solution was diluted 3.2/10,000 in assay buffer and 0.1 ml volumes of this were added to 2 ml binding assays =0.19 nM [^3 H]spiroperidol and =[…]
(b) Assay buffer--The assay buffer was a modified 50 mM Tris HCl buffer with a pH of 7.6 containing the following additions: NaCl-120 mM, KCl-5 mM, MgCl2 -1 mM, CaCl2 -2 mM, Pargyline-10 μM and 1-Ascorbic Acid-0.1%
(c) Membrane preparation--The striata were dissected from male CFHB rats and homogenized in 20 volumes of ice cold 0.32M sucrose with a Teflon/glass homogenizer and the homogenate was centrifuged at 1000 g for 10 minutes. The resulting supernatant was recentrifuged at 30,000 g for 30 minutes and the supernatant was discarded and the pellet was resuspended by homogenization in 30 volumes of ice cold assay buffer.
(d) Non-specific binding--Non-specific binding was accounted for by the inclusion of 1 μM(+)butaclamol in blank binding assays which required a stock solution of 20 μM in distilled water.
(e) Displacing compounds--Solutions were prepared at 20x final assay concentration in distilled water.
(f) Binding assay protocol--1.3 ml assay buffer, 0.5 ml membrane suspension, 0.1 ml distilled H2 O or drug solution and 0.1 ml [^3 H]spiroperidol dilution Binding assays were made up in ice with the [^3 H]spiroperidol being added last and incubated at 37° C. for 10 minutes. The bound ligand was separated by filtration through Whatman GF/C filters under vacuum followed by 2×10 ml rinses of ice cold assay buffer. The filters were dried at 80° C. and counted in 5 ml volumes of ECONOFLUOR (NEN) scintillation cocktail. All binding assays, controls, blanks and each of four displacer concentration were run in triplicate. IC50 values (Test A) were obtained graphically from log dose versus percent inhibition of specific binding plots.

The target in the next assay is rat cortical α1 receptor. As to the kind of experiment: Test B: [3H]Prazosin displacement from rat cortical α1 receptor binding sites. As to conditions: rat cerebral cortex membranes, [3H]prazosin 0.1 nM, 25° C., 30 minutes, pH 7.5. The procedure:
Test B--[^3 H]Pyrazosin displacement from rat cortical α1 receptor binding sites (a) Radioligand--[^3 H]Prazosin (Amersham International, TRK 647, 28 Ci/mmole) was used as a 1 μCi/1 μl solution and this stock solution was diluted 1/18,000 in assay buffer and 0.1 ml volumes of this were added to 2 ml binding assay. =0.1 nM [^3 H]Prazosin and =0.0056 μCi/binding assay (b) Membrane preparation--The cerebral cortices were dissected from male CFHB rats and homogenized in 20 volumes of ice cold 0.32M sucrose using a Teflon/glass homogenizer and the homogenate was centrifuged at 1000 g for 10 minutes. The resulting pellet was discarded and the supernatant was recentrifuged at 30,000 g for 30 minutes. The supernatant was discarded and the pellet was resuspended by homogenization in 50 volumes of 50 mM pH 7.5 Tris HCl buffer (assay buffer). (c) Non-specific binding--Non-specific binding was accounted for by the inclusion of 100 μM 1-noradrenaline in blank binding assays which required a stock solution of 2 mM 1-noradrenaline made up fresh daily in 0.1% 1-ascorbic acid. (d) Displacing compounds--Solutions were prepared at 20x final assay concentration in distilled water. (e) Binding assay protocol--1.3 ml assay buffer, 0.5 ml membrane suspension, 0.1 ml distilled H2 O or drug solution and 0.1 ml [^3 H]pyrazosin dilution Binding assays were made up in ice with the [^3 H]pyrazosin being added last and incubated at 25° C. for 30 minutes. The bound ligand was separated by filtration through Whatman GF/C glass fibre filters under vacuum followed by 2×10 ml rinses of ice cold assay buffer. The filters were dried at 80° C. and counted in 5 ml volumes of ECONOFLUOR (NEN) scintillation cocktail. All binding assays, controls, blanks and each of four displacer concentrations were run in triplicate. IC50 values (Test B) were obtained graphically from log dose versus percent inhibition of specific binding plots.

For the next assay, the target named is rat cortical α2 receptor. As to the kind of experiment: Test C: [3H]Dihydroergocryptine displacement from rat cortical α2 receptor binding sites. As to conditions: rat cortical membranes, [3H]dihydroergocryptine 0.45 nM, 25° C., 45 minutes in the dark; approximately 80% of binding is α2. The procedure: Test C--[^3 H]Dihydroergocryptine displacement from rat cortical α2 *receptor binding sites
(a) Radioligand--[9,10(n)-^3 H]9,10-Dihydroergocryptine (Amersham International, TRK 555, 17.5 Ci/mmole) was used as a 1 μCi/1 μl solution and this stock solution was diluted 1/6250 in assay buffer and 0.1 ml volumes of this were added to 2 ml binding assays. =0.45 nM and =0.016 μCi/binding assay
*In cortical membranes, [^3 H]dihydroergocryptine binds to both α1 and α2 receptor binding sites under the conditions of assay described here, approximately 80% of the binding is associated with α2 receptors.
(§1) (b) Membrane preparation--As for Test B
(c) Non-specific binding--As for Test B
(d) Displacing compounds--As for Test B
(e) Assay protocol--As for Test B with the exception that the binding assays were incubated at 25° C. for 45 minutes in the dark.

Assay [2] has as its target rat cortical muscarinic receptor. As to the kind of experiment: Test D: [3H]Quinuclidinyl benzylate displacement from rat cortical muscarinic receptor binding sites. As to conditions: rat cortical membranes, [3H]quinuclidinyl benzylate 0.31 nM, 25° C., 60 minutes; read-out: Test D MUSC IC50. The procedure:
Test D--[^3 H]Quinuclidinyl benzylate displacement from rat cortical muscarinic receptor binding sites
(a) Radioligand--DL-[3-^3 H]Quinuclidinyl benzylate (Amersham International, TRK 506, 12 Ci/mmol) was used as a 1 μCi/1 μl solution and this stock solution was diluted 1/13333 in assay buffer and 0.1 ml volumes of this were added to 2 ml binding assay =0.31 nM and =0.0075 μCi/binding assay
as §1
(c) Non-specific binding--Non-specific binding was accounted for by the inclusion of 100 μM oxotremorine sesquifumarate in blank binding assays and this required a stock solution of 2 mM in distilled H2 O.
(d) Displacement compounds--As for Test B
(e) Assay protocol--As for Test B with the exception that the binding assays were incubated at 25° C. for 60 minutes.

As usually defined, the IC50 is the concentration at which inhibition is half-maximal. As for `CCOC(=O)CCN1CCc2sc3ccccc3c(=O)c2C1` [Example 21, 2-(2-ethoxycarbonylethyl)-1,2,3,4-tetrahydro-10H-(1)-benzothiopyrano[3,2-c]pyridin-10-one hydrochloride], the IC50 is 0.78 µM in assay [1], 7.1 µM on rat cortical α1 receptor, 1 µM on rat cortical α2 receptor and 100 µM in assay [2].
In the case of `O=c1c2c(sc3ccccc13)CCNC2` [Example 1, 1,2,3,4-tetrahydro-10H-(1)-benzothiopyrano[3,2-c]pyridin-10-one hydrochloride], the IC50 in assay [1] was determined as 6.5 µM; on rat cortical α1 receptor, 6.6 µM; on rat cortical α2 receptor, 0.6 µM; in assay [2] it was 32 µM.
With `O=c1c2c(sc3ccc(F)cc13)CCN(CC1CCCCC1)C2` [Example 24, 2-cyclohexylmethyl-8-fluoro-1,2,3,4-tetrahydro-10H-(1)-benzothiopyrano[3,2-c]pyridin-10-one hydrochloride], the IC50 was 0.04 µM in assay [1], greater than 10 µM on rat cortical α1 receptor, greater than 10 µM on rat cortical α2 receptor and greater than 100 µM in assay [2].
As for `NC(=O)CCN1CCc2sc3ccccc3c(=O)c2C1` [Example 23, 2-(2-carbamoylethyl)-1,2,3,4-tetrahydro-10H-(1)-benzothiopyrano[3,2-c]pyridin-10-one hydrochloride], the IC50 is 4.2 µM in assay [1], 5.9 µM on rat cortical α1 receptor, 3 µM on rat cortical α2 receptor and greater than 100 µM in assay [2].
Turning to `O=c1c2c(sc3ccc(Cl)cc13)CCNC2` [Example 7, 8-chloro-1,2,3,4-tetrahydro-10H-(1)-benzothiopyrano[3,2-c]pyridin-10-one hydrochloride], the half-maximal inhibitory concentration (IC50) is 5.1 µM in assay [1], greater than 10 µM at rat cortical α1 receptor, 2.2 µM at rat cortical α2 receptor and 85.1 µM in assay [2].
The matching figures for `O=c1c2c(sc3ccccc13)CCN(C1CCCCC1)C2` [Example 37]: 0.16 µM, 1.59 µM, 0.6 µM and 11.7 µM.
In the same order, the values of `COc1ccc2sc3c(c(=O)c2c1)CN(CC1CCCCC1)CC3` [Example 38, 2-cyclohexylmethyl-8-methoxy-1,2,3,4-tetrahydro-10H-(1)-benzothiopyrano[3,2-c]pyridin-10-one hydrochloride] are 0.76 µM, greater than 10 µM, 2.19 µM and 91.2 µM.
With `O=c1c2c(sc3ccccc13)CCN(CC1CCC1)C2` [Example 26, 2-cyclobutylmethyl-1,2,3,4-tetrahydro-10H-(1)-benzothiopyrano[3,2-c]pyridin-10-one], the IC50 in assay [1] worked out at 0.06 µM; at rat cortical α1 receptor it was 0.69 µM; at rat cortical α2 receptor, 0.05 µM; in assay [2] it was 50 µM.
In the same order, the values of `CCCCN1CCc2sc3ccccc3c(=O)c2C1` [Example 14, 2-n-butyl-1,2,3,4-tetrahydro-10H-(1)-benzothiopyrano[3,2-c]pyridin-10-one hydrochloride] are 0.08 µM, 0.89 µM, 0.11 µM and 75.8 µM.
As to `O=C(CCCN1CCc2sc3ccccc3c(=O)c2C1)c1ccc(F)cc1` [Example 16, 2-(4-p-fluorophenyl-4-oxobutyl)-1,2,3,4-tetrahydro-10H-(1)-benzothiopyrano-[3,2-c]pyridin-10-one hydrochloride], the 50% inhibitory concentration (IC50) in assay [1] was 0.02 µM; on rat cortical α1 receptor, 0.02 µM; at rat cortical α2 receptor, 0.02 µM; in assay [2], greater than 100 µM.
As for `O=c1c2c(sc3ccccc13)CCN(CC1CCCCCC1)C2` [Example 28], the IC50 in assay [1] was 0.15 µM; at rat cortical α1 receptor, 2.82 µM; on rat cortical α2 receptor, 0.32 µM; in assay [2], greater than 100 µM.
Turning to `O=c1c2c(sc3ccccc13)CCN(CC1CCCC1)C2` [Example 27, 2-cyclopentylmethyl-1,2,3,4-tetrahydro-10H-(1)-benzothiopyrano[3,2-c]pyridin-10-one], the half-maximal inhibitory concentration (IC50) was found to be 0.04 µM in assay [1], 0.68 µM at rat cortical α1 receptor, 0.05 µM at rat cortical α2 receptor and 57.5 µM in assay [2].
The matching figures for `O=c1c2c(sc3ccccc13)CCN(CC1CC1)C2` [Example 25, 2-cyclopropylmethyl-1,2,3,4-tetrahydro-10H-(1)-benzothiopyrano[3,2-c]pyridin-10-one]: 0.22 µM, 1.23 µM, 0.06 µM and 43 µM.
The matching figures for `CCN1CCc2sc3ccccc3c(=O)c2C1` [Example 13, 2-ethyl-1,2,3,4-tetrahydro-10H-(1)-benzothiopyrano[3,2-c]pyridin-10-one hydrochloride]: 1 µM, 1.5 µM, 0.29 µM and 44.7 µM.
The matching figures for `O=c1c2c(sc3c1ccc1ccccc13)CCNC2` [Example 8, 1,2,3,4-tetrahydro-12H-naphtho[1',2':6,5]thiopyrano[3,2-c]pyridin-12-one hydrochloride]: 0.68 µM, 0.74 µM, 1 µM and 8.1 µM.
Turning to `N#CCCN1CCc2sc3ccccc3c(=O)c2C1` [Example 22, 2-(2-cyanoethyl)-1,2,3,4-tetrahydro-10H-(1)-benzothiopyrano[3,2-c]pyridin-10-one hydrochloride], the IC50 in assay [1] was greater than 10 µM; at rat cortical α1 receptor it was greater than 10 µM; on rat cortical α2 receptor it was greater than 10 µM; in assay [2] it was greater than 100 µM.
